Measured values taken from publication PMC9317861, “In Vitro Assessment of Pesticides Toxicity and Data Correlation with Pesticides Physicochemical Properties for Prediction of Toxicity in Gastrointestinal and Skin Contact Exposure” (Toxics, 2022).
Like-named read-outs stand apart in the source and are kept apart here.

Legend:
[1] = system: Caco-2 cells; settings: cited from earlier work; for IC50: Caco-2, 24 h
[2] = system: A431 cells; experiment: Alamar Blue cell viability/cytotoxicity assay, A431; format: cell-based; settings: Homo sapiens
Description: (§1) To assess the cytotoxic activity of GLY, IMD and IMZ, six cell lines, namely Caco-2 (human epithelial colorectal adenocarcinoma; Cell Lines Service (CLS), Eppelheim, Germany), HepG2 (human hepatocellular carcinoma; ATCC, Rockville, USA), A431 (human epidermoid carcinoma; CLS, Eppelheim, Germany), HaCaT (human keratinocytes, CLS, Eppelheim, Germany), SK-MEL-5 (human skin melanoma; CLS, Eppelheim, Germany), and RAW 264.7 (mouse macrophages, Abelson murine leukaemia virus-induced tumour; CLS, Eppelheim, Germany) cells, were used. All cell lines were cultured in complete culture media, composed of Dulbecco’s Modified Eagle Media (DMEM), supplemented with 1 mM L-glutamine, 10% (v/v) foetal bovine serum (FBS), and antibiotics (penicillin at 100 U/mL, and streptomycin at 100 μg/mL) and maintained in an incubator (5% CO2/95% air; 37 °C, controlled humidity). Cells were grown, in T25 culture flasks, to near confluence.
(§2) Near confluence, all cell lines, except RAW 264.7 cells, were subjected to enzymatic treatment (trypsin-EDTA) for detachment and subculture, as described by Andreani et al. and by Silva et al., which was stopped using complete culture medium (1:1, trypsin:culture media) as soon as cells were detached. RAW 264.7 cells were scratched off from the culture flasks using a cell scratcher (Orange Scientific; Braine-L’Alleud, Belgium), handling was performed, as described by Silva et al.. Once detached from the flasks, cells were gently separated and re-suspended using a Pasteur pipette, counted using an automated cell counter (TC10™, BIORAD, Lisbon, Portugal). Then, cells were re-suspended in fresh culture media (at 5 × 10^4 cells/mL) and seeded into 96-well microplates (100 µL/well) which were maintained in an incubator, for 48 h (to adhere and stabilize) before being used. For other details, see [24, 25].
(§3) Alamar Blue® (AB) assay was performed to assess the in vitro effect of the pesticides on cell viability. In summary, cells seeded into 96-well microplates were treated with various concentrations of the pesticides (GLY: 0–1 mM; IMD: 0–1 mM; IMZ: 0–0.3 mM). Test solutions were prepared in FBS-free culture media by diluting the appropriate volume of respective stock solution. A stock solution of GLY was prepared in water (at 40 mM), and stock solutions of IMD and IMZ were prepared in DMSO (at 20 mM). After 24 h or 48 h of exposure, the test solutions were removed and immediately replaced with Alamar Blue solution (100 µL/well; 10% (v/v) in FBS-free medium), followed by an additional 5 h incubation. Then, absorbance was read at 570 and 620 nm using a microplate reader (Multiskan EX; MTX Lab Systems, Inc., Bradenton, FL, USA), and the percentage of AB reduction was calculated according to manufacturers’ instructions, as described. Cell viability was calculated and expressed as percentage of control cells (non-exposed cells).

[3] = system: SK-MEL-5 cells; experiment: Alamar Blue cell viability/cytotoxicity assay, SK-MEL-5; format: cell-based, human; settings: for IC50: Homo sapiens
Procedure: (§4) Cells were grown, in T25 culture flasks, to near confluence.
as §2, §3

[4] = system: RAW 264.7 cells; experiment: Alamar Blue cell viability/cytotoxicity assay, RAW 264.7; format: cell-based; settings: Mus musculus
Description: as §1, §2, §3

[5] = system: HepG2 cells; experiment: Alamar Blue cell viability/cytotoxicity assay, HepG2; format: cell-based, human; settings: for IC50: Homo sapiens
Description: as §1, §2, §3

[6] = system: HepG2 cells; settings: cited from earlier work
[7] = system: HaCaT cells; settings: cited from earlier work
[8] = Figure 4A; cited from earlier work
[9] = system: Caco-2 cells; experiment: Alamar Blue cell viability/cytotoxicity assay, Caco-2; format: cell-based, human; settings: for IC50: Homo sapiens; for cell viability reduction: Caco-2, 300 µM
Procedure: as §4, §2, §3

[10] = as above; format: cell-based, human; settings: human, 48 h
Procedure: as §4, §2, §3

[11] = system: HaCaT cells; experiment: Alamar Blue cell viability/cytotoxicity assay, HaCaT; format: cell-based; settings: Homo sapiens
Description: as §1, §2, §3

[12] = n-octanol/water; Pubchem and INCHEM; cited from earlier work
[13] = Alamar Blue cell viability/cytotoxicity assay, SK-MEL-5; format: cell-based, human; settings: human; SK-MEL-5, 50 µM, 48 h
Procedure: as §4, §2, §3

[14] = cited from earlier work
[15] = system: CYP3A4; set-up: method as in PMID 19070657; settings: cited from earlier work
[16] = system: Caco-2, HepG2, A431, HaCaT, SK-MEL-5 and RAW 264.7 cells; experiment: Alamar Blue cell viability, all tested cell lines; format: cell-based; settings: up to 1 mM (highest tested concentration)
Description: To assess the cytotoxic activity of GLY, IMD and IMZ, six cell lines, namely Caco-2 (human epithelial colorectal adenocarcinoma; Cell Lines Service (CLS), Eppelheim, Germany), HepG2 (human hepatocellular carcinoma; ATCC, Rockville, USA), A431 (human epidermoid carcinoma; CLS, Eppelheim, Germany), HaCaT (human keratinocytes, CLS, Eppelheim, Germany), SK-MEL-5 (human skin melanoma; CLS, Eppelheim, Germany), and RAW 264.7 (mouse macrophages, Abelson murine leukaemia virus-induced tumour; CLS, Eppelheim, Germany) cells, were used. […]
Near confluence, all cell lines, except RAW 264.7 cells, were subjected to enzymatic treatment (trypsin-EDTA) for detachment and subculture, as described by Andreani et al. and by Silva et al., which was stopped using complete culture medium (1:1, trypsin:culture media) as soon as cells were detached. […] Once detached from the flasks, cells were gently separated and re-suspended using a Pasteur pipette, counted using an automated cell counter (TC10™, BIORAD, Lisbon, Portugal). […]
Alamar Blue® (AB) assay was performed to assess the in vitro effect of the pesticides on cell viability. […] Then, absorbance was read at 570 and 620 nm using a microplate reader (Multiskan EX; MTX Lab Systems, Inc., Bradenton, FL, USA), and the percentage of AB reduction was calculated according to manufacturers’ instructions, as described. […]

[17] = cited from earlier work; remark: listed apart in the source
[18] = system: SK-MEL-2; set-up: method as in PMID 23535362; settings: SK-MEL-2, 72 h exposure; cited from earlier work

Structure (SMILES): O=[N+]([O-])NC1=NCCN1Cc1ccc(Cl)nc1 [Imidacloprid, imidacloprid]
- cell viability ([1]; Caco-2, 96 h, 0.25 µg/mL): 81%
- concentrations cytotoxic / reducing cell viability ([1]; Caco-2, 96 h, conversion of µg/mL value): > 0.98 µM
- concentrations cytotoxic / reducing cell viability ([1]; Caco-2, 96 h, formulation from Bayer): above 0.25 µg/mL
- IC50 ([2]; A-431, 24 h): 573 ± 10.4 µM
- IC50 ([2]; A-431, 48 h): 389 ± 9.2 µM
- IC50 ([3]; SK-MEL-5, 24 h): 507 ± 22.1 µM
- IC50 ([3]; SK-MEL-5, 48 h): 319 ± 11.5 µM
- reduction in cell viability ([3]; SK-MEL-5, 600 µM, 48 h): ~ 88%
- IC50 ([4]; RAW264.7, 24 h): 306 ± 22.4 µM
- IC50 ([4]; RAW264.7, 48 h): 307 ± 22.1 µM
- IC50 ([5]; HepG2, 24 h): 624 ± 24.3 µM
- IC50 ([5]; HepG2, 48 h): 620 ± 10.6 µM
- concentration range dose-dependently reducing cell viability ([6]; HepG2, 24 h): 500 to 2000 µM
- concentration range dose-dependently reducing cell viability ([6]; HepG2, 48 h): 250 to 2000 µM
- concentration reducing cell viability below 50% ([7]; 24 h): 2350 µM
- H-donor acceptor count [8]: 4
- IC50 ([9]; Caco-2, 24 h): > 1000 µM
- IC50 ([9]; Caco-2, 48 h): 832 ± 29.6 µM
- viability at 48 h, 600 µM ([10]; Caco-2, 600 µM, read-out: cell viability (% of control)): 68.5%
- viability at 48 h, 1 mM ([10]; Caco-2, 1 mM, read-out: cell viability (% of control)): 27.3%
- IC50 ([11]; 24 h): 495 ± 19.4 µM
- IC50 ([11]; 48 h): 482 ± 12.9 µM
- log Pow [12]: 0.57

Structure (SMILES): C=CCOC(Cn1ccnc1)c1ccc(Cl)cc1Cl (centres unmarked) [Imazalil, imazalil]
- IC50 ([1]; conversion of µg/mL value, read-out: IC50): ~100 µM
- IC50 [1]: 30 µg/mL
- IC50 ([2]; A-431, A431, 24 h exposure, mean ± S.D., read-out: IC50): 145 ± 1.7 µM
- IC50 ([2]; A-431, A431, 48 h exposure, mean ± S.D., read-out: IC50): 117 ± 6.5 µM
- viability at 48 h, 50 µM [13]: ~80%
- IC50 ([3]; SK-MEL-5, 24 h exposure, mean ± S.D., read-out: IC50): 156 ± 9 µM
- IC50 ([3]; SK-MEL-5, 48 h exposure, mean ± S.D., read-out: IC50): 76.7 ± 1.8 µM
- reduction in cell viability ([3]; SK-MEL-5, 50 µM, 48 h): about 20%
- pKa [14]: 6.53
- CYP3A4 inhibition [15]: inhibit CYP3A4
- IC50 ([4]; RAW264.7, RAW 264.7, 24 h exposure, mean ± S.D., read-out: IC50): 31.3 ± 2.7 µM
- IC50 ([4]; RAW264.7, RAW 264.7, 48 h exposure, mean ± S.D., read-out: IC50): 7.21 ± 4.5 µM
- concentration at which a significant reduction in cell viability was observed ([5]; HepG2): 50 µM
- IC50 ([5]; HepG2, 24 h exposure, mean ± S.D., read-out: IC50): 93.7 ± 2.2 µM
- IC50 ([5]; HepG2, 48 h exposure, mean ± S.D., read-out: IC50): 47.1 ± 0.5 µM
- H-donor acceptor count [8]: 2
- cell viability reduction ([9]; 24 h): 94.13%
- cell viability reduction ([9]; 48 h): 98.06%
- IC50 ([9]; Caco-2, 24 h exposure, mean ± S.D., read-out: IC50): 254 ± 3.4 µM
- IC50 ([9]; Caco-2, 48 h exposure, mean ± S.D., read-out: IC50): 186 ± 2.27 µM
- viability at 48 h, 200 µM ([10]; Caco-2, 200 µM): 39.7%
- IC50 ([11]; 24 h exposure, mean ± S.D., read-out: IC50): 174 ± 15.3 µM
- IC50 ([11]; 48 h exposure, mean ± S.D., read-out: IC50): 120 ± 6.2 µM
- log Pow [12]: 4.56

Structure (SMILES): O=C(O)CNCP(=O)(O)O [Glyphosate, N-phosphonomethyl-glycine]
- concentrations that disrupted Caco-2 monolayers (loss of membrane integrity) ([1]; conversion of mg/mL value): > 59000 µM
- concentrations that disrupted Caco-2 monolayers (loss of membrane integrity) [1]: higher than 10 mg/mL
- IC50 ([2]; A-431, 24 h): > 1000 µM
- IC50 ([2]; A-431, 48 h): > 1000 µM
- effect on cell viability [16]: did not reduce cell viability
- effect on cell viability ([16]; listed as GLY): not able to induce cell death below 50%
- solubility in organic solvents [17]: very low solubility in organic solvents
- IC50 ([3]; SK-MEL-5, 24 h): > 1000 µM
- IC50 ([3]; SK-MEL-5, 48 h): > 1000 µM
- reduction in cell viability ([3]; SK-MEL-5, 1 mM, 24 h): 23.3%
- reduction in cell viability ([3]; SK-MEL-5, 1 mM, 48 h): 18.7%
- IC50 ([4]; RAW264.7, 24 h): > 1000 µM
- IC50 ([4]; RAW264.7, 48 h): > 1000 µM
- effect on cells ([5]; HepG2, concentrations up to 1 mM): not affected
- IC50 ([5]; HepG2, 24 h): > 1000 µM
- IC50 ([5]; HepG2, 48 h): > 1000 µM
- effect on cell proliferation ([6]; HepG2, up to 3.5 µg/mL (20.7 µM), 4 h and 24 h): slight increase in cell proliferation
- IC50 ([7]; 18 h exposure): 30000 µM
- effect on cell viability ([9]; Caco-2, concentrations up to 1 mM, 24 h or 48 h): no significant reduction in cell viability
- IC50 ([9]; Caco-2, 24 h): > 1000 µM
- IC50 ([9]; Caco-2, 48 h): > 1000 µM
- IC50 ([11]; 24 h): > 1000 µM
- IC50 ([11]; 48 h): > 1000 µM
- IC50 [18]: 11 µM
